Measured values published in PMC6399515 (Insect Biochemistry and Molecular Biology, 2016).

Tests used:
[1] = tested on: all mosquito P450s of the panel apart from CYP6Z2 (CYP6M2, CYP6P2, CYP6P3, CYP6P4, CYP9J5); assay: in vitro; settings: Anopheles gambiae
CYP6M2 = CYP6M2 (Anopheles gambiae, UniProt Q7Q449); assay: biochemical
CYP6Z2 = target: T1, CYP6Z2 (Anopheles gambiae, UniProt A8I285); assay: biochemical
T1 sequence (A8I285 1-492): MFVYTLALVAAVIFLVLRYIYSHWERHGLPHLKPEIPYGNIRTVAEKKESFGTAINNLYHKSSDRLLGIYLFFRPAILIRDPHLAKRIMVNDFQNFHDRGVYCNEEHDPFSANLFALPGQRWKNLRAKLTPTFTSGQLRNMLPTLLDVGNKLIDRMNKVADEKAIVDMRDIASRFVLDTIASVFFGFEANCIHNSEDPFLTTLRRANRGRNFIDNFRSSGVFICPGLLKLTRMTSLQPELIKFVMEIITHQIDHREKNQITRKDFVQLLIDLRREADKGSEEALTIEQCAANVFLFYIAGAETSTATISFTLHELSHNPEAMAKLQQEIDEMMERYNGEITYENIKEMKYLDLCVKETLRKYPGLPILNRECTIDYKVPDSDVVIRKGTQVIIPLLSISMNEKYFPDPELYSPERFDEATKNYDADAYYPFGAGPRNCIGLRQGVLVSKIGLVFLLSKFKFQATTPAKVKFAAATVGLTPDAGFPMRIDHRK
T1 sequence (Q86QH5 1-679 partner): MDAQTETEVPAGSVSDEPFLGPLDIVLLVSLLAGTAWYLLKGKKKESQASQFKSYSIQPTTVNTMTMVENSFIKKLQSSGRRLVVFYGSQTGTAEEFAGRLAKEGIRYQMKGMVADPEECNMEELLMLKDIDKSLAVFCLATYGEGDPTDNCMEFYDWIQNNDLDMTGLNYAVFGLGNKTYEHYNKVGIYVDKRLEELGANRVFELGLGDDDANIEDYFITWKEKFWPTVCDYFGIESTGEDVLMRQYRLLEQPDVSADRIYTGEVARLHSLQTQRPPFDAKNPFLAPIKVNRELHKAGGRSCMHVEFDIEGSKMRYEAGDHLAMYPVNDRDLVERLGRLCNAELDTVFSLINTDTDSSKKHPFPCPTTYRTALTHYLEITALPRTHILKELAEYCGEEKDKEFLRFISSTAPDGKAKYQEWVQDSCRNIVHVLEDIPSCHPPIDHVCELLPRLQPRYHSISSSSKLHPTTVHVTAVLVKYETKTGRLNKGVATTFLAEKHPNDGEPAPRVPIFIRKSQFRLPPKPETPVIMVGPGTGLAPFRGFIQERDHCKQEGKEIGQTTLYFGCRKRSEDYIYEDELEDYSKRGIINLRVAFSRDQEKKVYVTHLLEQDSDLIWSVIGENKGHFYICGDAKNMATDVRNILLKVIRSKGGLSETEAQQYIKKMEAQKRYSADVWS
T1 sequence (Q86QH4 1-128 partner): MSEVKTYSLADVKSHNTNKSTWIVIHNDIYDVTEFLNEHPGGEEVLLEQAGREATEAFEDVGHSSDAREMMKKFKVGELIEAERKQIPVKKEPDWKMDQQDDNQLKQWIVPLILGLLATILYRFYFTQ

CYP6P2 = target: T2, CYP6P2 (Anopheles gambiae, UniProt Q8T629, V81I); assay: biochemical; settings: IC50 of DEF metabolism
T2 sequence (Q8T629 1-507 V81I): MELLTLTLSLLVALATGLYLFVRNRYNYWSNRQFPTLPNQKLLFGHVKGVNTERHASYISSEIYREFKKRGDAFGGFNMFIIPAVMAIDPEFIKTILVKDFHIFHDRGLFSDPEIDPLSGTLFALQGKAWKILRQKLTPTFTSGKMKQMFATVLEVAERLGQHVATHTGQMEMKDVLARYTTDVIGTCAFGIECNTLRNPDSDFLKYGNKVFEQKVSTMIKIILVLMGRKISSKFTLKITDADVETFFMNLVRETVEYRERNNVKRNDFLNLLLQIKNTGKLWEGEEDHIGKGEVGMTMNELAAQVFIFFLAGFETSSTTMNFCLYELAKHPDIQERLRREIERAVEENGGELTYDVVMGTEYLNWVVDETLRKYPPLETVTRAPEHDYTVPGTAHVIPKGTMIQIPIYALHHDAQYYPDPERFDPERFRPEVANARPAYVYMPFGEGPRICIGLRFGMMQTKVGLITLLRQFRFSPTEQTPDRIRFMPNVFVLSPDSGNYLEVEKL
T2 sequence (Q7QFI3 1-587 partner): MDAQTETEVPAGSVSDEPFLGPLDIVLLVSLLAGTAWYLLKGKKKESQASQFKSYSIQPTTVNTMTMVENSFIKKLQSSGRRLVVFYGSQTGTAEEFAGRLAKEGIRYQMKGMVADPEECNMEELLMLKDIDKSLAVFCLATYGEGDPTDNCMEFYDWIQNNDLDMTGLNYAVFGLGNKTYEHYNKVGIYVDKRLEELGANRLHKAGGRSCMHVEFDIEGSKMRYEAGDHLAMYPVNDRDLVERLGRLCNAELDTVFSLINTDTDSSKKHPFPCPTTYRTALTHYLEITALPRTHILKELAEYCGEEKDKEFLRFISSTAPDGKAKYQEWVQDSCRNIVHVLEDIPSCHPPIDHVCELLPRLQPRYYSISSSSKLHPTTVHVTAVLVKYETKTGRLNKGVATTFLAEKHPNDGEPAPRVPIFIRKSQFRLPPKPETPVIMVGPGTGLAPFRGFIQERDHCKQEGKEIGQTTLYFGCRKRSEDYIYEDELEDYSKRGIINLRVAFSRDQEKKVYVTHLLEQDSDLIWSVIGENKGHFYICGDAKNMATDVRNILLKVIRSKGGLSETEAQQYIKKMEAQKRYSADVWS
T2 sequence (Q86QH4 1-128 partner): T1 sequence (Q86QH4 1-128 partner)

CYP6P3 = target: T3, CYP6P3 (Anopheles gambiae, UniProt Q8T632); assay: biochemical
T3 sequence (Q8T632 1-509): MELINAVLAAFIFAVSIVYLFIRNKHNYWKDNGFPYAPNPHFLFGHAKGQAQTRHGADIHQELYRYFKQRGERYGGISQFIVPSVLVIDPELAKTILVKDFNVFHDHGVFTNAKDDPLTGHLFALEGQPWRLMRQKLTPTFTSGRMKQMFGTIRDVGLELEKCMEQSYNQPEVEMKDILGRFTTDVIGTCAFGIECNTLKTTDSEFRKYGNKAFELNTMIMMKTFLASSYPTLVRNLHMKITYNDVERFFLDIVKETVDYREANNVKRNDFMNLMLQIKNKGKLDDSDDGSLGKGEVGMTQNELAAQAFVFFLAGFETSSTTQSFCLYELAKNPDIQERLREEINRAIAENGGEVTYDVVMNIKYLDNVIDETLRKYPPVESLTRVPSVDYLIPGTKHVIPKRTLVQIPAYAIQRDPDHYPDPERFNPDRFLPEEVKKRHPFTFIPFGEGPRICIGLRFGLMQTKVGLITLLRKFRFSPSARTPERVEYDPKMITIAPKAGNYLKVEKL
T3 sequence (Q86QH5 1-679 partner): T1 sequence (Q86QH5 1-679 partner)
T3 sequence (Q86QH4 1-128 partner): T1 sequence (Q86QH4 1-128 partner)

CYP9J5 = target: T4, CYP9J5 (Anopheles gambiae, UniProt Q5TN57); assay: biochemical
T4 sequence (Q5TN57 1-545): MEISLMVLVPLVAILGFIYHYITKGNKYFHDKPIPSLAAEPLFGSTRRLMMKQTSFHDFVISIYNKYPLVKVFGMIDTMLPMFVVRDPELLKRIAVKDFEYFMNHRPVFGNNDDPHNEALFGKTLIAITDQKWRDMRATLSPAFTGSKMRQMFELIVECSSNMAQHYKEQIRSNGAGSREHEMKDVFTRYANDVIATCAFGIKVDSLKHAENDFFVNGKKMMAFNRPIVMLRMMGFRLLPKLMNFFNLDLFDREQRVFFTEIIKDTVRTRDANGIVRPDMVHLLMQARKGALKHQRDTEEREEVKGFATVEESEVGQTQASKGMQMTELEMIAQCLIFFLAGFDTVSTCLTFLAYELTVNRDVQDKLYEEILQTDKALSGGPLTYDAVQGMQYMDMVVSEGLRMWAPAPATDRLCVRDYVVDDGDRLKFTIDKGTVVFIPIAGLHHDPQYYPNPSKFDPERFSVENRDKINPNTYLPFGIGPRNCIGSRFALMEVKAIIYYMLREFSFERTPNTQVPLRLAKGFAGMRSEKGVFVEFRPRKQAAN
T4 sequence (Q86QH5 1-679 partner): T1 sequence (Q86QH5 1-679 partner)
T4 sequence (Q86QH4 1-128 partner): T1 sequence (Q86QH4 1-128 partner)

Chain of CYP6M2 (Q7Q449 1-499, one chain of several): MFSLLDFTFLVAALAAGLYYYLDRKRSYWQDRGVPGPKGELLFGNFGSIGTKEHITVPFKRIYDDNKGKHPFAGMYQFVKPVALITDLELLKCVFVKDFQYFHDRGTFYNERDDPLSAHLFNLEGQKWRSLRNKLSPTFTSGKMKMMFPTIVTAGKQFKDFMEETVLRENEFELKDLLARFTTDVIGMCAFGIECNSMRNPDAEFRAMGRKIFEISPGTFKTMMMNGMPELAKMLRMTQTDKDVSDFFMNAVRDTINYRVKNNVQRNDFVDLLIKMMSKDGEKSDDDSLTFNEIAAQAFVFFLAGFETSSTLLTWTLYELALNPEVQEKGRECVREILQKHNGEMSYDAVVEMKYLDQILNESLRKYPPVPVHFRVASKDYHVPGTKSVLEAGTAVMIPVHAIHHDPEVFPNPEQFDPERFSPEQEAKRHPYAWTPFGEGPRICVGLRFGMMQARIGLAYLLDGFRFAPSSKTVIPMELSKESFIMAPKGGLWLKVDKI

Structure (SMILES): CC1(C)[C@H](C(=O)O[C@H](C#N)c2cccc(Oc3ccccc3)c2)[C@@H]1C=C(Br)Br [Deltamethrin, (S)-α-cyano-3-phenoxybenzyl (1R,3R)-cis-2,2-dimethyl-3-(2,2-dibromovinyl)-cyclopropanecarboxylate]
- IC50 ([1]; pH 7.4, IC50 of DEF activity): 1 to 10 µM
- IC50 ([1]; pH 7.4, category of inhibition of DEF activity): 1 to 10 µM
- IC50 (CYP6M2): 4.24 µM
- IC50 (CYP6Z2; IC50 of DEF metabolism): 14 µM
- IC50 (CYP6Z2; category of inhibition of DEF metabolism): > 10 µM
- IC50 (CYP6P2): 4.97 µM
- IC50 (CYP6P3): 3.17 µM
- IC50 (CYP9J5): 6.05 µM
